Series [1] can be described thus: Photostability in methanol solutions (solar light simulator). It is filed as physicochemical. Also noted: λmax pre-irradiation: unit not given beside the values. Particulars: methanol solution; for % of initial AUC post-irradiation / λmax post-irradiation: 1h irradiation at 500 W/m2. The procedure: (§1) The photostability evaluation of compounds was performed both in methanol solutions and in macrogol formulations. Irradiation of samples according to previous studies was conducted for 1 h at 500 W/m^2 (cumulative dose of ultraviolet radiation 218 kJ/m^2) with solar light simulator (Suntest CPS+, Atlas, Linsengericht, Germany) equipped with an optical filter cutting off wavelengths shorter than 290 nm and IR-block filter to neutralize thermal effects. The UV absorption spectrum of the samples were analysed post-irradiation and compared with pre-irradiation results. UPLC-MS/MS analyses were also performed.
(§2) Methanol solutions were tested at concentration 25 or 50 µM in quartz cuvettes with the PTFE stopper to prevent evaporation or leaking of the solvent. Macrogol formulations (2% w/w) were tested on PMMA plates (1.3 mg/cm^2). After post-irradiation measure of UV absorption, exposed and unexposed plates were washed with 5 mL of methanol, then mixtures were filtered and analysed by UPLC-MS/MS. All analyses were performed in duplicates.

Series [2] can be described thus: Ultraviolet spectroscopy in methanol solutions. The class given is physicochemical. Particulars: for Absorption Range: scan range 290–400 nm. Here is the method:
Spectra with a scan range of 290–400 nm were recorded in 50 or 25 μM methanol solutions, in 1 cm path length, 1.5 mL quartz cuvettes on a U-2800 double beam spectrophotometer (Hitachi, Tokyo, Japan) controlled by UV Solution version 2.2 software. The molar extinction coefficient at maximum absorption (εmax) of tested compounds was determined in methanol as the slope of the linear regression of absorbance vs. concentration of tested compound (from 10 to 50 μM or 2.5 to 30 μM).

Series [3] can be described thus: In vitro photoprotection study of 2% (w/w) macrogol formulations on PMMA plates. An excerpt:
The composition of formulations and concentration of tested compounds were based on their limited solubility. N-monosubstituted compounds 2a–2e were insoluble at desirable concentrations in the typical solvents used in cosmetic formulations such as alcohols, triacetin, surfactants, and co-surfactants. To dissolve compounds 2a and 2b before incorporation to the formulation DMSO: Tween 20 (1:9 w/w) was used, for less soluble 2c–2e it was necessary to use DMSO alone as solvent. […] Thus the detailed composition of the formulations is as follows: F1–Tween 20 43.2%, PEG-400 25%, PEG-1500 25%, Triacetin 4.8%, tested compound 2%; F2–Tween 20 43.2%, PEG-400 25%, PEG-1500 25%, DMSO 4.8%, tested compound 2%; F3–PEG-400 25%, PEG-1500 25%, DMSO 48%, tested compound 2%. Considering the disadvantages of currently reported macrogol formulations and the low concentration achieved for the tested compounds (2%), we plan to work on cosmetic emulsions containing the most promising derivatives at higher concentrations as well as required excipients including preservatives, antioxidants, etc. This research will be carried out in the near future.
Tested compounds and commercial UV filters as reference standards were incorporated to a neutral macrogel formulation in the concentration of 2%. Prior to the incorporation, compounds 3a–3e and 4f–4h and reference UV-filters were dissolved in a triacetin:Tween 20 (1:9) solvent system. For compounds 2a–2e it was necessary to use DMSO. The final composition of the macrogol formulations is presented in the photoprotective activity section.
In vitro photoprotection study was performed according to EN ISO 24443:2012 [71] with slight modifications. Formulation with tested compound (32.5 mg) was applied on a polymethylmethacrylate plate (PMMA) with the application area 25 cm^2 and 5 µm roughness value to simulate the skin surface (Schonberg GmbH, Hamburg, Germany). As a reference a PMMA plate treated with approximately 15 µL of glycerin was used. Measurements were carried out by reflectance spectrophotometry with SPF-290AS Analyser (Solar Light Company, Glenside, PA, USA) equipped with integrating sphere controlled by WinSPF version X.X. software. For each sample two plates were prepared, absorbance measures were performed on 6 different positions of the plate from 290 to 400 nm with 1 nm steps. The results were expressed as an average of data from 12 scans.

Series [4] is described as follows: In vitro stability in mouse liver microsomes. It is filed as in vitro ADME. Particulars: mouse liver microsomes; for half-life at 20 µM / microsomal CLint at 20 µM: mouse; for microsomal CLint at 20 µM: calculated from t1/2. Here is the method: Mouse liver microsomes (MLMs) were used to investigate the phase I metabolism of selected compounds (2c, 2d, 3b, 4g, 5a) and the reference substance BP-2. Samples composed of test compound (20 µM), MLMs (0.8 mg/mL) and potassium phosphate buffer (100 mM, pH 7.4) were preincubated prior to addition of NADPH-regenerating system. NADPH-regenerating system contained NADP, glucose-6-phosphate, glucose-6-phosphate dehydrogenase and potassium phosphate buffer (100 mM, pH 7.4). Control incubations were performed in the absence of the NADPH-regenerating system and in case of esters (2c, 2d, 3b and 4g) without the mouse liver microsomes solution to determine spontaneous hydrolysis. Incubations were conducted at 37 °C for at least 15 min up to 60 min. The reactions were stopped by the addition of 250 μL ice-cold methanol containing internal standard PTX (20 μM). The mixture was then centrifuged. Supernatant analysis was performed using UPLC/MS (Waters Corporation). The assays were repeated two times. The in vitro half times (t1/2) for test compounds were determined from the slope of the linear regression of ln % parent compound remaining versus incubation time. The calculated t1/2 was incorporated into the following equation to obtain intrinsic clearance: (Clint) = (volume of incubation [µL]/ protein in the incubation [mg]) × 0.693 / t1/2 [74].

Series [5] in a line: Photostability in macrogol formulations on PMMA plates (solar light simulator). It is filed as physicochemical. The procedure:
After irradiation of thin layer of formulations applied on PMMA plates, their photoprotective parameters were determined and compared with the pre-irradiation results. The study gives an overview on functional photostability of the tested compounds. It is an important test, because the photostability of some compounds in low concentrated solutions may meaningfully differ from results obtained for higher concentrations used in sunscreen products. […] In the present study both UVB and UVA-absorbers were tested, so the changes in SPFin vitro, UVA PF and AUC after irradiation are taken into account as a measure of photostability.
as §1, §2

[6] abbreviates: 2% (w/w) macrogol formulation F3 (DMSO 48%).
Setting [7] is: pH 7.4, mouse liver microsomes 0.8 mg/mL, 20 µM compound, NADPH-regenerating system, 37 °C, read-out: t ½.
Where [8] appears, read: after 1 h irradiation at 500 W/m^2, formulation F3 (DMSO 48%).
Where [9] appears, read: 2% (w/w) macrogol formulation F1 (Triacetin 4.8%).
The mark [10] stands for this setting: after 1 h irradiation at 500 W/m^2, formulation F1.

Where two headings read alike, the source gives them in different places.

By microsomal CLint is commonly meant the capacity of the preparation to metabolise the compound, expressed as a volume cleared per time. The term melting point denotes the temperature of the solid-liquid transition. As to `CCOC(=O)CN1C(=O)N/C(=C\c2ccc(OCC)cc2)C1=O` [Compound 2c, Ethyl (Z)-2-(4-(4-ethoxybenzylidene)-2,5-dioxoimidazolidin-1-yl)acetate], the melting point was in the range of 181 to 182 °C. Besides, in series [1], the λmax pre-irradiation is 336, the “% of initial AUC post-irradiation” value is given as 96.89% and the λmax post-irradiation is 344. Also, in series [2], the εmax came out at 35610 M⁻¹ cm⁻¹, the λmax stood at 336 nm and the “Absorption Range” value is recorded as 290–376 nm. For the same compound, in series [3] (setting [6]), the SPFin vitro was determined as 3.16 ± 0.05, the “UVA PF” value came to 4.68 ± 0.02, the “UVA/UVB Ratio” value came out at 1.36 ± 0.01 and the λc (critical wavelength) was determined as 367 nm. Also, the “Probable Transformation” value in series [4] was “O-dealkylation”. Besides, the half-life at 20 µM in series [4] (setting [7]) was 33 min. Also, the microsomal CLint at 20 µM in series [4] (pH 7.4, mouse liver microsomes) was 52 µL/min/mg. In series [5] (setting [8]), the “% of Initial AUC” value is listed as 34.13%, the “% of Initial SPFin vitro” value is reported as 44.37% and the “% of Initial UVA PF” value is reported as 35.83%.
Compound `CCOC(=O)CN1C(=O)N/C(=C\c2ccc(OC)cc2OC)C1=O` [Compound 2d, Ethyl (Z)-2-(4-(2,4-dimethoxybenzylidene)-2,5-dioxoimidazolidin-1-yl)acetate] yielded a melting point of 197 to 198 °C. Also, in series [1], the λmax pre-irradiation is 349, the “% of initial AUC post-irradiation” value is listed as 100.96% and the λmax post-irradiation is reported as 354. For the same compound, in series [2], the εmax worked out at 30700 M⁻¹ cm⁻¹, the λmax came to 349 nm and the “Absorption Range” value was 290–394 nm. Also, in series [3] (setting [6]), the SPFin vitro was found to be 2.00 ± 0.11, the “UVA PF” value was found to be 4.48 ± 0.38, the “UVA/UVB Ratio” value was 2.59 ± 0.09 and the λc (critical wavelength) turned out to be 386 nm. Moreover, the “Probable Transformation” value in series [4] is on record as “O-dealkylation”. In addition, the half-life at 20 µM in series [4] (setting [7]) amounted to 15 min. The microsomal CLint at 20 µM in series [4] (pH 7.4, mouse liver microsomes) is 59 µL/min/mg. Moreover, in series [5] (setting [8]), the “% of Initial AUC” value is 58.87%, the “% of Initial SPFin vitro” value is 75.69% and the “% of Initial UVA PF” value was 51.45%. Moreover, in series [5] (formulation with DMSO 48% (F3), extreme values), the “decrease of tested parameters (SPFin vitro, UVA PF, AUC) after irradiation” value is 41.1%.
The compound `CCOC(=O)CN1C(=O)N/C(=C\c2ccc(OC)c(OC)c2)C1=O` [Compound 2e, Ethyl (Z)-2-(4-(3,4-dimethoxybenzylidene)-2,5-dioxoimidazolidin-1-yl)acetate] gave a melting point of 198 to 200 °C. Also, in series [1], the λmax pre-irradiation was 344, the “% of initial AUC post-irradiation” value is 97.8% and the λmax post-irradiation is 351. In addition, in series [2], the εmax was determined as 30740 M⁻¹ cm⁻¹, the λmax came out at 344 nm and the “Absorption Range” value is recorded as 290–381 nm. Besides, in series [3] (setting [6]), the SPFin vitro was 2.50 ± 0.08, the “UVA PF” value is on record as 4.77 ± 0.24, the “UVA/UVB Ratio” value stood at 1.95 ± 0.02 and the λc (critical wavelength) was found to be 379 nm. For the same compound, the “Probable Transformation” value in series [4] was “O-dealkylation”. The half-life at 20 µM in series [4] (setting [7]) is 41 min. Besides, in series [4] (pH 7.4, mouse liver microsomes), the intrinsic metabolic clearance (microsomal CLint) at 20 µM was 21 µL/min/mg. For the same compound, in series [5] (setting [8]), the “% of Initial AUC” value is reported as 41.99%, the “% of Initial SPFin vitro” value is 56.00% and the “% of Initial UVA PF” value is given as 38.99%.
In the case of `CCOC(=O)CN1C(=O)/C(=C/C=C/c2ccccc2OC)N(CC(=O)OCC)C1=O` [Compound 4h, Diethyl 2,2′-((Z)-4-((E)-3-(2-methoxyphenyl)allylidene)-2,5-dioxoimidazolidine-1,3-diyl)diacetate], the melting point is 134 to 135 °C. In series [1], the “decrease of AUC after irradiation” value was 1.5%, the λmax pre-irradiation is on record as 370, the “% of initial AUC post-irradiation” value was 98.55% and the λmax post-irradiation is 370. Also, in series [2], the εmax was 34987 M⁻¹ cm⁻¹, the λmax amounted to 370 nm and the “Absorption Range” value is reported as 290–400 nm. In series [3] (setting [9]), the “UVA PF” value worked out at 4.28 ± 0.02, the “UVA/UVB Ratio” value was 2.58 ± 0.01 and the λc (critical wavelength) came to 389 nm. This compound also registered an SPFin vitro in series [3] (2% (w/w) macrogol formulation F1 (Tween 20, PEG-400, PEG-1500, Triacetin 4.8%)) of 1.94 ± 0.04. For the same compound, in series [5] (setting [10]), the “% of Initial AUC” value is listed as 69.19%, the “% of Initial SPFin vitro” value is 82.22% and the “% of Initial UVA PF” value is recorded as 62.38%. The “decrease of AUC after irradiation” value in series [5] (macrogol formulation F1) is given as 30.8%. In addition, the “percentage of photoproducts content” value in series [5] (macrogol formulation, post-irradiation chromatograms) is on record as 11.0%.
In turn, `O=C(O)CN1C(=O)N/C(=C\c2ccccc2)C1=O` [Compound 5a, (Z)-2-(4-Benzylidene-2,5-dioxoimidazolidin-1-yl)acetic acid] displayed a melting point of 215 to 217 °C. In series [2], the εmax came out at 27310 M⁻¹ cm⁻¹, the λmax was determined as 316 nm and the “Absorption Range” value is on record as 290–346 nm. Moreover, in series [4] (setting [7]), the half-life at 20 µM is 1390 min. In addition, the microsomal CLint at 20 µM in series [4] (pH 7.4, mouse liver microsomes) was under 1 µL/min/mg. In addition, the half-life at 20 µM in series [4] (pH 7.4, mouse liver microsomes, read-out: t1/2) is over 1380 min.

The values above are taken from paper PMC6630718, “Discovery of Novel UV-Filters with Favorable Safety Profiles in the 5-Arylideneimidazolidine-2,4-dione Derivatives Group” (Molecules, 2019).
